Data taken from patent US11731965B2, “Tetrahydroprotoberberine compound, preparation method therefor and uses thereof, and pharmaceutical composition” (SHANGHAI INSTITUTE OF MATERIA MEDICA, CHINESE ACADEMY OF …, priority 2017, dated 2023).
Structures can show the parent of a compound that is named as a salt.

Assays:
[1] = target: T1, human recombinant D1 receptor (Homo sapiens, UniProt P21728); experiment: D1 antagonistic activity test (LANCE cAMP, antagonism of dopamine-induced cAMP production in HEK293 cells); format: cell-based; details: HEK293 cells expressing human recombinant D1 receptor; test concentration 0.1 nM to 10000 nM; read-out: D1 Antagonistic Activity (IC50, nmol/L)
T1 construct: expressed in transfected cells; host or cells: HEK293
T1 sequence (P21728 whole entry): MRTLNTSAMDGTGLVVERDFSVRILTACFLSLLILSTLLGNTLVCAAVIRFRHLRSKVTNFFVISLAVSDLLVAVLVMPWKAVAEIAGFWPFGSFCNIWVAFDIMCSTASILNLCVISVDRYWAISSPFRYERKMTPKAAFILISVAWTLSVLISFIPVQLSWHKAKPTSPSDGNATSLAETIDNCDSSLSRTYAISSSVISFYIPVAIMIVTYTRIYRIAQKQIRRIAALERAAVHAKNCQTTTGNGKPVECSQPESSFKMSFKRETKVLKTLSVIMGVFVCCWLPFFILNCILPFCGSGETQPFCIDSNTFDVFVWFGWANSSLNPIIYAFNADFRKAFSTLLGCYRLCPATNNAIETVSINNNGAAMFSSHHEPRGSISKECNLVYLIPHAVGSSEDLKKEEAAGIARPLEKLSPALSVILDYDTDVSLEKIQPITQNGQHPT
Method: • 1) D1 antagonistic activity test
The D1 antagonism of the compound was evaluated by testing the antagonistic action of the compounds against dopamine on the induction of cAMP production in HEK293 cells. The cAMP concentration test was performed according to the method described in the kit instructions. The test concentration of the compound was 0.1 nM to 10000 nM. SCH23390 was used as a positive control. The IC50 was calculated by Excelfit software.

[2] = test system: PCP-induced high spontaneous activity in mice; experiment: PCP-induced high spontaneous activity test in mice; format: in vivo, Male ICR mice; details: for Effective Dose: dose by gavage that significantly reduces PCP (7 mg/kg ip) induced high spontaneous activity of mice vs model group
Method: PCP (phencylidine) was dissolved in physiological saline to prepare a 7 mg/kg solution. The test compound was formulated with a 0.5% CMC-Na solution to a solution with suitable concentration, ready-to-use. Male ICR mice were 18-22 g. Mice were randomly divided into a solvent control group, a model control group, a positive control group, and each test drug group during the test. There were 8 mice in each group. Mice in each group were given each test drug by gavage. 45 minutes after the test drug was administered, mice were injected with a PCP (7 mg/kg) solution intraperitoneally. The spontaneous, open field video analysis system was used to record the mouse movement trajectory within 45 min after administration of test drug or saline, and then the mouse movement trajectory within 75 min after PCP administration. Spontaneous, open field video analysis system was used to analyze the mouse's movement trajectory, and the total distance of the movement of the mice in each group was counted. The result was expressed as mean±SD. Results were analyzed by one-way analysis of variance.

[3] = target: T2, human recombinant D2 receptor (Homo sapiens, UniProt P14416); experiment: D2 antagonistic activity test (LANCE cAMP, antagonism of dopamine inhibition of cAMP production in HEK293 cells); format: cell-based; details: HEK293 cells expressing human recombinant D2 receptor; test concentration 0.1 nM to 10000 nM; read-out: D2 Antagonistic Activity (IC50, nmol/L)
T2 construct: expressed in transfected cells; host or cells: HEK293
T2 sequence (P14416 whole entry): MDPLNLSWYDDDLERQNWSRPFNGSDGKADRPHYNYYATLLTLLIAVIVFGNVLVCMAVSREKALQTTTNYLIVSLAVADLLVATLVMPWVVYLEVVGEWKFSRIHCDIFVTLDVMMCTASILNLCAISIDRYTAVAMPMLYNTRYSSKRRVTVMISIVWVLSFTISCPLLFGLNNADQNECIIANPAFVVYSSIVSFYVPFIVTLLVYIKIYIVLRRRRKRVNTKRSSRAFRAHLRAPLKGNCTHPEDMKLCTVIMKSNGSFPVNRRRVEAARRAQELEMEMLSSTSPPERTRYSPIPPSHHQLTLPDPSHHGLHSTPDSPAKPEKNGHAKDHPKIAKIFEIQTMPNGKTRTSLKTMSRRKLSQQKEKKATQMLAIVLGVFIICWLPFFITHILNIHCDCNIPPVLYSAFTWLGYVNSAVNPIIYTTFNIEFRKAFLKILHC
Method: LANCE™ cAMP 384 Kit (PerkinElmer, USA) was used to test the antagonism of the compound against the D1 receptor using the HEK293 cells expressing human recombinant D1 receptor. The D1 antagonism of the compound was evaluated by testing the antagonistic action of the compounds against dopamine on the induction of cAMP production in HEK293 cells. The cAMP concentration test was performed according to the method described in the kit instructions. The test concentration of the compound was 0.1 nM to 10000 nM. SCH23390 was used as a positive control. The IC50 was calculated by Excelfit software. The test results of some compounds were shown in Table 1. • 2) D2 antagonistic activity test LANCE™ cAMP 384 Kit (PerkinElmer, USA) was used to test the antagonism of the compound against the D2 receptor using the HEK293 cells expressing human recombinant D2 receptor. The D2 antagonism of the compound was evaluated by testing the antagonistic action of the compounds against dopamine on the inhibition of cAMP production in HEK293 cells. The cAMP concentration test was performed according to the method described in the kit instructions. The test concentration of the compound was 0.1 nM to 10000 nM. Risperidone was used as a positive control. The IC50 was calculated by Excelfit software. The test results of some compounds were shown in Table 1 (ND means the test was not performed).

[4] = target: T3, human recombinant 5-HT1A receptor (Homo sapiens, UniProt P08908); experiment: 5-HT1A agonistic activity test (LANCE cAMP, inhibition of cAMP production in HEK293 cells); format: cell-based; details: HEK293 cells expressing human recombinant 5-HT1A receptor; test concentration 0.1 nM to 10000 nM; read-out: 5-HT1A Agonistic Activity (EC50, nmol/L)
T3 construct: expressed in transfected cells; host or cells: HEK293
T3 sequence (P08908 1-422): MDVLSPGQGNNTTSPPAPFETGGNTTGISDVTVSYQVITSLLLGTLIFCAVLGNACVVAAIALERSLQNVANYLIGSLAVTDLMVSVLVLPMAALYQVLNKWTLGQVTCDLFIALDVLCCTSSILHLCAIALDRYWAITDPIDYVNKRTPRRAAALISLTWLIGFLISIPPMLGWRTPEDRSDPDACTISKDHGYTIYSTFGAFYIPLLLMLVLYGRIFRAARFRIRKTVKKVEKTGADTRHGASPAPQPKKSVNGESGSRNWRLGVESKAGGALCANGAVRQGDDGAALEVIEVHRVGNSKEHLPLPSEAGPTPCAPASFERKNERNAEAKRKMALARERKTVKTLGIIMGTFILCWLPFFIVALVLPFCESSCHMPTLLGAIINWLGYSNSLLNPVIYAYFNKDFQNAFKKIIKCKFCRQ
Method: • 3) 5-HT1A agonistic activity test
LANCE™ cAMP 384 Kit (PerkinElmer, USA) was used to test the agonistic effect of the compound on 5-HT1A receptor using the HEK293 cells expressing human recombinant 5-HT1A receptor. The 5-HT1A agonistic effect of the compound was evaluated by testing the inhibitory effect of the compound on cAMP production in HEK293 cells. The cAMP concentration test was performed according to the method described in the kit instructions. The test concentration of the compound was 0.1 nM to 10000 nM. 8-OH-DPAT was used as a positive control. The EC50 was calculated by Excelfit software.

[5] = test system: insomnia induced by injection with 4-Chlorophenylalanine (PCPA) in rats; experiment: Sedative and hypnotic effects, PCPA-induced insomnia model in rats treated with sodium pentobarbital; format: in vivo, Wistar rats; details: for sleep time: FIG. 2
Method: The sedative and hypnotic effects of Example 60 were evaluated using a model of insomnia induced by injection with 4-Chlorophenylalanine (PCPA) in rats.
Dosage and method of administration: PCPA was administered at a dose of 150 mg/kg. […] was administered by a single intraperitoneal injection at 72 hours before the experiment in all Wistar rats. The diazepam group (DI) was administered at a dose of 2 mg/kg and 4 mg/kg, a single intraperitoneal injection; the test drug group was administered at a dose of 1 mg/kg and 3 mg/kg, a single intragastric administration; sodium pentobarbital was administered at a dose of 25 mg/kg, a single intraperitoneal injection. The administration volume was 10 ml/kg. On the day of the test, the model group was given sodium pentobarbital 30 minutes after the same volume of physiological saline was given; the DI group was given sodium pentobarbital 30 minutes after DI was administered; the test drug group was given sodium pentobarbital 60 minutes after the drug was administered.lndex observation: After the administration of sodium pentobarbital, the rats' response was closely observed. The time from the administration to 1 minute after the righting reflex disappeared is the sleep latency. The time from 1 minute after the righting reflex disappeared to the point that the righting reflex returned is sleep time.

[6] = Metabolism of l-stepholidine (statement only, no method)

Compound	IC50 [1]	IC50 [3]	EC50 [4]	Effective Dose [2]	other results
COc1cc2c(cc1NC(C)=O)[C@@H]1Cc3ccc(OC)c(OC)c3CN1CC2 [Example 14, (S)-2-acetamido-3,9,10-trimethoxy-6,8,13,13a4tetrahydro-5H-dibenzo[a,g] quinolizine hydrochloride]	–	–	514 nmol/L	10 mg/kg	–
COc1cc2c(cc1OC)[C@@H]1Cc3ccc(OC)c(C(C)=O)c3CN1CC2 [Example 21, (S)-2,3,10-trimethoxy-9-acetyl-6,8,13,13a-tetrahydro-5H-dibenzo [a,g] quinolizine]	1500 nmol/L	–	238 nmol/L	20 mg/kg	–
COc1cc2c(cc1C#N)[C@@H]1Cc3ccc(C#N)c(OC)c3CN1CC2 [Example 37, (S)-2,10-dicyano-3,9-dimethoxy-6,8,13,13a-tetrahydro-5H-dibenzo [a,g] quinolizine]	211 nmol/L	19 nmol/L	3030 nmol/L	–	–
COc1cc2c(cc1C(N)=O)[C@@H]1Cc3ccc(C(N)=O)c(OC)c3CN1CC2 [Example 38, (S)-2,10-dicarbamoyl-3,9-dimethoxy-6,8,13,13a-tetrahydro-5H-dibenzo[a,g] quinolizine]	3400 nmol/L	620 nmol/L	4580 nmol/L	–	–
COc1cc2c(cc1OC)[C@@H]1Cc3ccc(OC)c(OCCO)c3CN1CC2 [Example 56, (S)-2,3,10-trimethoxy-9-hydroxyethoxy-6.8,13,13a-tetrahydro-5H-dibenzo[a,g] quinolizine]	1050 nmol/L	2800 nmol/L	150 nmol/L	20 mg/kg	–
COc1cc2c(cc1OC)[C@@H]1Cc3ccc(OC)c(OC4CC4)c3CN1CC2 [Example 57, (S)-2,3,10-trimethoxy-9-cyclopropoxy-6,8,13,13a-tetrahydro-5H-dibenzo[a,g] quinolizine hydrochloride]	–	–	110 nmol/L	20 mg/kg	–
COc1cc2c(cc1NS(C)(=O)=O)[C@@H]1Cc3ccc(OC)c(OC)c3CN1CC2 [Example 60, (S)-2-methanesulfonylamino-3,9,10-trimethoxy-6,8,13,13a-tetrahydro-5H-dibenzo[a,g] quinolizine]	525 nmol/L	6.2 nmol/L	–	–	sleep time ([5]; 1 mg/kg single intragastric administration, sodium pentobarbital 25 mg/kg ip 60 minutes later): significantly prolong; sleep latency ([5]; 3 mg/kg single intragastric administration, sodium pentobarbital 25 mg/kg ip 60 minutes later, FIG. 1, *P<0.05 vs model group): significantly reduce; sleep time ([5]; 3 mg/kg single intragastric administration, sodium pentobarbital 25 mg/kg ip 60 minutes later): prolong; hypnotic effect (overall) ([5]; PCPA-induced insomnia rats, 1 and 3 mg/kg intragastric): good hypnotic effect

Continued, in another order:

IC50 [1]	IC50 [3]	EC50 [4]	Compound	Effective Dose [2]	other results
170 nmol/L	35 nmol/L	450 nmol/L	COc1cc2c(cc1C(N)=O)[C@@H]1Cc3ccc(OC)c(OC)c3CN1CC2 [Example 5, (S)-2-carbamoyl-3,9,10-trimethoxy-6,8,13,13a-tetrahydro-5H-dibenzo [a,g] quinolizine]	10 mg/kg	–
500 nmol/L	750 nmol/L	1700 nmol/L	COc1cc2c(cc1CNC(C)=O)[C@@H]1Cc3ccc(OC)c(OC)c3CN1CC2 [Example 11, (S)-2-acetaminomethyl-3,9,10-trimethoxy-6,8,13,13a-tetrahydro-5H-dibenzo[a,g] quinolizine]	10 mg/kg	–
240 nmol/L	500 nmol/L	2300 nmol/L	COc1cc2c(cc1C(C)=O)[C@@H]1Cc3ccc(OC)c(OC)c3CN1CC2 [Example 12, (S)-2-acetyl-3,9,10-trimethoxy-6,8,13,13a-tetrahydro-5H-dibenzo [a,g] quinolizine]	–	–
311 nmol/L	1000 nmol/L	1200 nmol/L	COc1cc2c(cc1OC)[C@@H]1Cc3ccc(C#N)c(OC)c3CN1CC2 [Example 27, (S)-2,3,9-trimethoxy-10-cyano-6,8,13,13a-tetrahydro-5H-dibenzo[a,g] quinolizine]	–	–
7.7 nmol/L	37 nmol/L	–	COc1cc2c(cc1O)[C@@H]1Cc3ccc(O)c(OC)c3CN1CC2 [l-SPD, L-Stepholidine, reference compound]	–	duration of effect / efficacy ([2]; oral, PCP-induced high spontaneous activity in mice): short duration of effect; metabolism [6]: fast metabolism
